Test results reported in patent US20220264878A1, “HERBICIDAL COMPOSITION CONTAINING R-TYPE PYRIDYLOXY CARBOXYLIC ACID DERIVATIVE AND USE THEREOF” (Qingdao Kingagroot Chemical Compound Co., Ltd., priority 2019, published 2022).
Read-outs that look alike come from different tables or passages of the source.

What was measured:
Format in all cases: in vivo
Digitaria sanguinalis = assay: Post-emergence foliage spray, pot culture, fresh weight inhibition (Tables 151-206; 20 days); conditions: Digitaria sanguinalis, 480 h, read-out: Control effect (%) of A applied alone in corresponding dose
Experimental: Table 151-206: Digitaria sanguinalis, Amaranthus retroflexus, Conyza Canadensis, Capsella bursa-pastoris, Eleusine indica were collected in Huangdao of Shandong Province, Sinapis arvensis were collected in Sixian of Anhui Province, Alopecurus japonicus were collected in Tianchang of Anhui Province, Veronica didyma were collected in Siyang of Jiangsu Province.
(§1) The above weeds were cultivated by a pot culture method. […] Full and uniform weed seeds were selected, soaked in warm water at 25° C. for 6 hours, and germinated in a 28° C. biochemical incubator (darkness). The weed seeds that had just germinatedwere evenly placed on the surface of the soil and then covered with 0.5-1 cm soil according to the sizes of seeds.
The culture was carried out in a controllable sunlight greenhouse at 20 to 30° C., in natural light, and relative humidity of 57% to 72%.
(§2) The technical materials were all dissolved in acetone, and diluted with an aqueous solution containing 0.1% emulsifier Tween-80. The dilution is performed as required.
(§3) A ratio of the active ingredient A to the active ingredient B and amounts thereof in each group depends on the characteristics and toxicity of the two agents, as well as the main application purpose of a corresponding formulation. Based on the pre-tests in this study, the dosage of the active ingredient A and B applied alone and in combination were shown in the tables. Water containing the solvent and emulsifier same with the above groups but free of the agents was used as a blank control.
Table 1-48, 51-98, 101-148, 151-206: […] per treatment, that is, a total of 60 weeds were treated in one treatment.
Table 151-206: The agents were used for only once in the experiment. In the stage of weeds with 3˜4 leaves, the weeds were thinned out to maintain 15 weeds per pot and 45 weeds for each treatment, then continued to be cultured to 4˜5 leaves stage of grassy weeds, 5˜6 leaves stage of broadleaf weeds, and treated.
(§4) The well-cultured weeds were evenly placed on a platform with an area of 0.5 m^2, and a solution of agents was sprayed on the stems and leaves thereof by the 3WP-2000-type walking spray tower at a dosage of 450 kg/ha and at a spray pressure of 0.3 MPa. After all the solution was sprayed, the valve was closed. After 30 seconds, the door of the spray tower was opened, and the nutritional bowl was taken out. Then the valve was opened, and the spray tube was cleaned by spraying 50 ml of water.
(§5) A pot-culture method was employed. For the cultivation of weeds, please refer to the Section 1.1), and “Pesticide guidelines for laboratory bioactivity tests—herbicides”. As to a method for applying agents, please refer to the section 2.3.2), that is, a foliage treatment was employed. After the treatment, the weeds were routinely cultured in a greenhouse.
(§6) A method for investigating absolute number was employed, wherein whole seedlings of survival weeds were cut off with a blade along the soil surface, and the fresh weight of the weeds was weighed with an analytical balance. For dead weeds, the fresh weight thereof was zero.
Table 151-206: The investigation was performed after 20 days of the treatment for only once.
Theoretical fresh weight inhibition rate of a combination of two active ingredients in each group was calculated by the Gowing method (E0=X+Y−X*Y/100), and then compared with an actually measured inhibition rate (E), thereby effect of the combination (hereafter referred to as combined effect) on weeds was evaluated: the value of E-E0, which was greater than 10%, corresponded to a synergistic effect, the value of E-E0, which was less than −10%, corresponded to an antagonistic effect, and the value of E-E0, which was from −10% to 10%, corresponded to an additional effect.

Capsella bursa-pastoris = assay: as above; conditions: Capsella bursa-pastoris, 480 h, read-out: Control effect (%) of A applied alone in corresponding dose
Experimental: as §1, §2, §3
In the stage of weeds with 3˜4 leaves, the weeds were thinned out to maintain 15 weeds per pot and 45 weeds for each treatment, then continued to be cultured to 4˜5 leaves stage of grassy weeds, 5˜6 leaves stage of broadleaf weeds, and treated.
as §4, §5, §6
(§7) Wherein, in the formula, X represented the fresh weight inhibition rate of the active ingredient A in a dosage of P, and Y represented the fresh weight inhibition rate of the active ingredient B in a dosage of Q.

Echinochloa caudate = assay: Post-emergence foliage spray, pot culture, fresh weight inhibition (Tables 1-48, 51-98, 101-148; 24 days)
Experimental: as §1, §2, §3
(§8) In the stage of weeds with 3˜4 leaves, the weeds were thinned out to maintain 15 weeds per pot and 45 weeds for each treatment, then continued to be cultured to 5˜6 leaves stage of grassy weeds, 6˜7 leaves stage of broadleaf weeds, and treated.
as §4, §5, §6, §7

Echinochloa oryzoides = assay: as above
Experimental: as §1, §2, §3, §8, §4, §5, §6, §7

[1] = A alone 75 g a.i./ha, 20 days after treatment
[2] = A alone 150 g a.i./ha, 20 days after treatment

## CCCCCCCCCCCOC(=O)[C@@H](C)Oc1nc(F)c(Cl)c(N)c1Cl [Compound A94]
Digitaria sanguinalis; A 75 g a.i./ha, 20 days
  pest or weed control at 75 g/ha: 23.4%
Digitaria sanguinalis; A 150 g a.i./ha, 20 days
  pest or weed control at 150 g/ha: 51.7%
Capsella bursa-pastoris; A 75 g a.i./ha, 20 days
  pest or weed control at 75 g/ha: 6.2%
Capsella bursa-pastoris; A 150 g a.i./ha, 20 days
  pest or weed control at 150 g/ha: 12.6%

## COC(=O)[C@@H](C)Oc1ncc(Cl)c(N)c1Cl [Compound A173]
Digitaria sanguinalis; A 75 g a.i./ha, 20 days
  pest or weed control at 75 g/ha: 38.2%
Digitaria sanguinalis; A 150 g a.i./ha, 20 days
  pest or weed control at 150 g/ha: 73.6%
Capsella bursa-pastoris; A 75 g a.i./ha, 20 days
  pest or weed control at 75 g/ha: 24.8%
Capsella bursa-pastoris; A 150 g a.i./ha, 20 days
  pest or weed control at 150 g/ha: 52.4%

## C[C@@H](Oc1nc(F)c(Cl)c(N)c1Cl)C(=O)SCc1ccco1 [Compound A211]
Digitaria sanguinalis; A 75 g a.i./ha, 20 days
  pest or weed control at 75 g/ha: 31.3%
Digitaria sanguinalis; A 150 g a.i./ha, 20 days
  pest or weed control at 150 g/ha: 68.3%
Capsella bursa-pastoris; A 75 g a.i./ha, 20 days
  pest or weed control at 75 g/ha: 5.8%
Capsella bursa-pastoris; A 150 g a.i./ha, 20 days
  pest or weed control at 150 g/ha: 14.6%

## Cc1c(F)c(F)c(COC(=O)[C@@H](C)Oc2nc(F)c(Cl)c(N)c2Cl)c(F)c1F [Compound A213]
Digitaria sanguinalis; [1]
  pest or weed control at 75 g/ha: 14.9%
Digitaria sanguinalis; [2]
  pest or weed control at 150 g/ha: 31.2%
Capsella bursa-pastoris; [1]
  pest or weed control at 75 g/ha: 14.6%
Capsella bursa-pastoris; [2]
  pest or weed control at 150 g/ha: 26.8%

## COC(=O)[C@H](Oc1nc(F)c(Cl)c(N)c1Cl)c1ccccc1 [Compound A171]
Digitaria sanguinalis; A 75 g a.i./ha, 20 days
  pest or weed control at 75 g/ha: 19.2%
Digitaria sanguinalis; A 150 g a.i./ha, 20 days
  pest or weed control at 150 g/ha: 31.9%
Capsella bursa-pastoris; A 75 g a.i./ha, 20 days
  pest or weed control at 75 g/ha: 12.2%
Capsella bursa-pastoris; A 150 g a.i./ha, 20 days
  pest or weed control at 150 g/ha: 28.9%

## COC(=O)[C@@H](C)Oc1ccc(Oc2cnc3cc(Cl)ccc3n2)cc1 [quizalofop-P-methyl]
Echinochloa caudate; quizalofop-P-methyl 3.75 g a.i./ha
  Control effect (%) of B applied alone in corresponding dose: 3.4%
Echinochloa caudate; quizalofop-P-methyl 7.5 g a.i./ha
  Control effect (%) of B applied alone in corresponding dose: 12.2%
Echinochloa caudate; quizalofop-P-methyl 15 g a.i./ha
  Control effect (%) of B applied alone in corresponding dose: 40.8%
Echinochloa caudate; quizalofop-P-methyl 30 g a.i./ha
  Control effect (%) of B applied alone in corresponding dose: 72.1%
Echinochloa oryzoides; B 3.75 g a.i./ha
  Control effect (%) of B applied alone in corresponding dose: 5.9%
Echinochloa oryzoides; B 7.5 g a.i./ha
  Control effect (%) of B applied alone in corresponding dose: 14.6%
Echinochloa oryzoides; B 15 g a.i./ha
  Control effect (%) of B applied alone in corresponding dose: 38.6%
Echinochloa oryzoides; B 30 g a.i./ha
  Control effect (%) of B applied alone in corresponding dose: 63.3%

## CCNc1nc(Cl)nc(NC(C)C)n1 [atrazine]
Echinochloa caudate; Echinochloa, 576 h, atrazine 75 g a.i./ha, read-out: Control effect (%) of B applied alone in corresponding dose
  pest or weed control at 75 g/ha: 3.8%
Echinochloa caudate; Echinochloa, 576 h, atrazine 150 g a.i./ha, read-out: Control effect (%) of B applied alone in corresponding dose
  pest or weed control at 150 g/ha: 13.5%
Echinochloa caudate; Echinochloa, 576 h, atrazine 300 g a.i./ha, read-out: Control effect (%) of B applied alone in corresponding dose
  pest or weed control at 300 g/ha: 24.8%
Echinochloa caudate; Echinochloa, 576 h, atrazine 600 g a.i./ha, read-out: Control effect (%) of B applied alone in corresponding dose
  pest or weed control at 600 g/ha: 66.5%
Echinochloa oryzoides; Echinochloa oryzoides, 576 h, B 75 g a.i./ha, read-out: Control effect (%) of B applied alone in corresponding dose
  pest or weed control at 75 g/ha: 6.7%
Echinochloa oryzoides; Echinochloa oryzoides, 576 h, B 150 g a.i./ha, read-out: Control effect (%) of B applied alone in corresponding dose
  pest or weed control at 150 g/ha: 21.7%
Echinochloa oryzoides; Echinochloa oryzoides, 576 h, B 300 g a.i./ha, read-out: Control effect (%) of B applied alone in corresponding dose
  pest or weed control at 300 g/ha: 26.4%
Echinochloa oryzoides; Echinochloa oryzoides, 576 h, B 600 g a.i./ha, read-out: Control effect (%) of B applied alone in corresponding dose
  pest or weed control at 600 g/ha: 61.8%
